Assay results from paper PMC7191901, “Hybrid inhibitors of DNA and HDACs remarkably enhance cytotoxicity in leukaemia cells” (Journal of Enzyme Inhibition and Medicinal Chemistry, 2020).
“Also recorded” adds a separate entry of the source. Where two headings read alike, the source gives them in different places.

Assays:
U266 cells = experiment: cells; type: cell-based; settings: Homo sapiens, U-266, 72 h, read-out: GI50, U266
MCF-7/ADR cells = experiment: cells; type: cell-based; settings: Homo sapiens, NCI/ADR-RES, 72 h, read-out: GI50, MCF-7/ADR
HL-60 cells [1] = type: cell-based, human
MDA-MB-231 cells = experiment: Cell proliferation (MTS) assay, MDA-MB-231; type: cell-based; settings: Homo sapiens, read-out: GI50 values, MDA-MB-231
MCF-7 cells = experiment: Cell proliferation (MTS) assay, MCF-7; type: cell-based; settings: Homo sapiens, MCF7, 72 h, read-out: GI50 values, MCF-7
HL-60 cells [2] = type: cell-based, human; remark: listed apart in the source
U-937 cells = experiment: Cell proliferation (MTS) assay, U-937; type: cell-based; settings: Homo sapiens, read-out: GI50 values, U-937
HL-60 cells [3] = experiment: Cell proliferation (MTS) assay, HL-60; type: cell-based; settings: Homo sapiens, read-out: GI50 values, HL-60
H1975 cells = experiment: cells; type: cell-based; settings: Homo sapiens, NCI-H1975, 72 h, read-out: GI50, H1975
A2780 cells = experiment: Cell proliferation (MTS) assay, A2780; type: cell-based; settings: Homo sapiens, read-out: GI50 values, A2780
[4] = test system: Ac-α-tubulin and Ac-histone H3; type: cell-based, human
A549 cells = experiment: cells; type: cell-based; settings: Homo sapiens, A549, 72 h, read-out: GI50, A549
[5] = test system: PARP, caspase 3, and caspase 8; type: cell-based, human
[6] = MDA-MB-231, 3 days (72 h), MTS assay
[7] = U-937, 3 days (72 h), MTS assay
[8] = HL-60, 3 days (72 h), MTS assay
[9] = A2780, 3 days (72 h), MTS assay

Row | GI50 (MDA-MB-231 cells; [6]) [µM] | GI50 (MCF-7 cells; 3 days, MTS assay) [µM] | GI50 (U-937 cells; [7]) [µM] | GI50 (HL-60 cells [3]; [8]) [µM] | GI50 (A2780 cells; [9]) [µM] | SMILES | GI50 (U266 cells) [µM] | GI50 (MCF-7/ADR cells) [µM] | % DNA content in the tail (HL-60 cells [1]) [%] | GI50 (MDA-MB-231 cells; MDA-MB-231, 72 h) [µM] | GI50 (MCF-7 cells) [µM] | G2/M fraction (HL-60 cells [2]) [%] | GI50 (U-937 cells; U-937, 72 h) [µM] | GI50 (HL-60 cells [3]; HL-60, 72 h) [µM] | GI50 (H1975 cells) [µM] | GI50 (A2780 cells; A2780, 72 h) [µM] | acetylation of α-tubulin and histone H3 [4] | GI50 (A549 cells) [µM] | concentration required to induce the cleavage of PARP, caspase 3, and caspase 8 [5] [µM]
1 | – | – | – | – | – | O=C(O)CCCc1ccc(N(CCCl)CCCl)cc1 [Chlorambucil] | > 100 | > 100 | 2.1 | > 100 | 393 | 32.2 | 37.7 | 21.1 | > 100 | > 100 | failed to induce the acetylation of α-tubulin and histone H3; also recorded: little acetylation of α-tubulin and histone H3 | > 100 | 30
2 | > 100 | 393 | 93 | 60.5 | > 100 | Nc1ccc(CCCC(=O)NO)cc1 [Compound 7, 4–(4-Aminophenyl)-N-hydroxybutanamide] | – | – | – | – | – | – | – | – | – | – | – | – | –
3 | 85.1 | 282 | > 100 | 70.3 | 81 | CCN(CC)c1ccc(CCCC(=O)NO)cc1 [Compound 8a, 4–(4-(Diethylamino)phenyl)-N-hydroxybutanamide] | – | – | – | – | – | – | – | – | – | – | – | – | –
4 | 66.8 | 37.8 | 40.2 | 34.4 | 7.79 | CCCN(CCC)c1ccc(CCCC(=O)NO)cc1 [Compound 8b, 4–(4-(Dipropylamino)phenyl)-N-hydroxybutanamide] | – | – | – | – | – | – | – | – | – | – | – | – | –
